From patent US9686984B2, “Macrocyclic picolinamides as fungicides” (DOW AGROSCIENCES LLC, priority 2014, dated 2017)
Where two headings read alike, the source gives them in different places.

What was measured:
Puccinia triticina = experiment: Wheat Brown Rust (PUCCRT) disease control on wheat seedlings; assay type: in vivo; conditions: Low Volume (121.5 g/H)
Protocol: Technical grades of materials were dissolved in acetone, which were then mixed with nine volumes of water containing 110 ppm Triton X-100. The fungicide solutions were applied onto wheat seedlings using an automated booth sprayer to run-off. All sprayed plants were allowed to air dry prior to further handling. All fungicides were evaluated using the aforementioned method for their activity vs. all target diseases, unless stated otherwise. Wheat leaf blotch and brown rust activity were also evaluated using track spray applications, in which case the fungicides were formulated as EC formulations, containing 0.1% Trycol 5941 in the spray solutions. Wheat plants (variety Yuma) were grown from seed in a greenhouse in 50% mineral soil/50% soil-less Metro mix until the first leaf was fully emerged, with 7-10 seedlings per pot. These plants were inoculated with an aqueous spore suspension of Septoria tritici either prior to or after fungicide treatments. After inoculation the plants were kept in 100% relative humidity (one day in a dark dew chamber followed by two to three days in a lighted dew chamber at 20° C.) to permit spores to germinate and infect the leaf. The plants were then transferred to a greenhouse set at 20° C. for disease to develop. When disease symptoms were fully expressed on the 1st leaves of untreated plants, infection levels were assessed on a scale of 0 to 100 percent disease severity. Percent disease control was calculated using the ratio of disease severity on treated plants relative to untreated plants. Example B: Evaluation of Fungicidal Activity: Wheat Brown Rust (Puccinia triticina; Synonym: Puccinia recondita f. sp. tritici; Bayer code PUCCRT) Wheat plants (variety Yuma) were grown from seed in a greenhouse in 50% mineral soil/50% soil-less Metro mix until the first leaf was fully emerged, with 7-10 seedlings per pot. These plants were inoculated with an aqueous spore suspension of Puccinia triticina either prior to or after fungicide treatments. After inoculation the plants were kept in a dark dew room at 22° C. with 100% relative humidity overnight to permit spores to germinate and infect the leaf. The plants were then transferred to a greenhouse set at 24° C. for disease to develop. Fungicide formulation, application and disease assessment followed the procedures as described in the Example A.

Zymoseptoria tritici = experiment: Leaf Blotch of Wheat (SEPTTR) disease control on wheat seedlings; assay type: in vivo; conditions: Low Volume (121.5 g/H)
Protocol: Example A: Evaluation of Fungicidal Activity: Leaf Blotch of Wheat (Mycosphaerella graminicola; Anamorph: Zymoseptoria tritici; Bayer code […]) Technical grades of materials were dissolved in acetone, which were then mixed with nine volumes of water containing 110 ppm Triton X-100. The fungicide solutions were applied onto wheat seedlings using an automated booth sprayer to run-off. All sprayed plants were allowed to air dry prior to further handling. All fungicides were evaluated using the aforementioned method for their activity vs. all target diseases, unless stated otherwise. Wheat leaf blotch and brown rust activity were also evaluated using track spray applications, in which case the fungicides were formulated as EC formulations, containing 0.1% Trycol 5941 in the spray solutions. Wheat plants (variety Yuma) were grown from seed in a greenhouse in 50% mineral soil/50% soil-less Metro mix until the first leaf was fully emerged, with 7-10 seedlings per pot. These plants were inoculated with an aqueous spore suspension of Septoria tritici either prior to or after fungicide treatments. After inoculation the plants were kept in 100% relative humidity (one day in a dark dew chamber followed by two to three days in a lighted dew chamber at 20° C.) to permit spores to germinate and infect the leaf. The plants were then transferred to a greenhouse set at 20° C. for disease to develop. When disease symptoms were fully expressed on the 1st leaves of untreated plants, infection levels were assessed on a scale of 0 to 100 percent disease severity. Percent disease control was calculated using the ratio of disease severity on treated plants relative to untreated plants.

[1] = 24 h, 1 Day Protectant, read-out: PUCCRT disease control, 1 DP
[2] = 72 h, 3 Day Curative, read-out: PUCCRT disease control, 3 DC
[3] = 24 h, 1 Day Protectant, read-out: SEPTTR disease control, 1 DP
[4] = 72 h, 3 Day Curative, read-out: SEPTTR disease control, 3 DC

Compound | pest or weed control at 121.5 g/ha (Puccinia triticina; [1]) [%] | pest or weed control at 121.5 g/ha (Puccinia triticina; [2]) [%] | pest or weed control at 121.5 g/ha (Zymoseptoria tritici; [3]) [%] | pest or weed control at 121.5 g/ha (Zymoseptoria tritici; [4]) [%]
COc1ccnc(C(=O)N[C@H]2CCOC[C@@H](Cc3ccccc3)[C@H](C)OC2=O)c1OC(C)=O [Compound 1] | > 70 | > 70 | > 70 | > 70
COCC[C@H]1OCC[C@H](NC(=O)c2nccc(OC)c2OC(C)=O)C(=O)O[C@@H](C)[C@@H]1Cc1ccccc1 [Compound 4] | > 70 | > 70 | > 70 | > 70
COc1ccnc(C(=O)N[C@H]2CCOC[C@@H](Cc3ccc(F)cc3)[C@H](C)OC2=O)c1OC(C)=O [Compound 5] | > 70 | > 70 | > 70 | < 70
CCCC[C@H]1OCC[C@H](NC(=O)c2nccc(OC)c2OC(C)=O)C(=O)O[C@@H](C)[C@@H]1Cc1ccc(F)cc1 [Compound 6] | > 70 | > 70 | > 70 | > 70
COc1ccnc(C(=O)N[C@H]2CCO[C@H](CCc3ccccc3)[C@@H](Cc3ccc(F)cc3)[C@H](C)OC2=O)c1OC(C)=O [Compound 7, 2-(((2R,3S,4S,7S)-3-(4-fluorobenzyl)-4-methyl-6-oxo-2-phenethyl-1,5-dioxonan-7-yl)carbamoyl)-4-methoxypyridin-3-yl acetate] | > 70 | > 70 | > 70 | > 70
COCC[C@H]1OCC[C@H](NC(=O)c2nccc(OC)c2OC(C)=O)C(=O)O[C@@H](C)[C@@H]1Cc1ccc(F)cc1 [Compound 8] | > 70 | > 70 | > 70 | < 70
COc1ccnc(C(=O)N[C@H]2CCO[C@H](CCc3ccccc3)[C@@H](CCC(C)C)[C@H](C)OC2=O)c1OC(C)=O [Compound 9] | > 70 | > 70 | > 70 | > 70
COc1ccnc(C(=O)N[C@H]2CCO[C@H](CCc3ccc(F)cc3)[C@@H](CCC(C)C)[C@H](C)OC2=O)c1OC(C)=O [Compound 10] | > 70 | > 70 | > 70 | > 70
COc1ccnc(C(=O)N[C@H]2CCOC[C@@H](Cc3ccccc3-c3ccccc3)[C@H](C)OC2=O)c1OC(C)=O [Compound 11] | > 70 | > 70 | > 70 | < 70
COc1ccnc(C(=O)N[C@H]2CCO[C@H](Cc3ccccc3)[C@@H](CCC(C)C)[C@H](C)OC2=O)c1OC(C)=O [Compound 12] | > 70 | > 70 | > 70 | > 70
CCCC[C@H]1[C@H](C)OC(=O)[C@@H](NC(=O)c2nccc(OC)c2OC(C)=O)CCO[C@@H]1CCc1ccccc1 [Compound 13] | > 70 | > 70 | > 70 | > 70
CCCC[C@H]1[C@H](C)OC(=O)[C@@H](NC(=O)c2nccc(OC)c2OC(C)=O)CCO[C@@H]1CC [Compound 14] | > 70 | > 70 | > 70 | < 70
CCCC[C@H]1[C@H](C)OC(=O)[C@@H](NC(=O)c2nccc(OC)c2OC(C)=O)CCO[C@@H]1COc1ccccc1 [Compound 15] | > 70 | > 70 | > 70 | > 70
COc1ccnc(C(=O)N[C@H]2CCOC[C@@H](Cc3ccccc3)[C@H](C)OC2=O)c1OCOC(C)=O [Compound 16] | > 70 | > 70 | < 70 | < 70
CCCC[C@H]1OCC[C@H](NC(=O)c2nccc(OC)c2OCOC(C)=O)C(=O)O[C@@H](C)[C@@H]1Cc1ccccc1 [Compound 18] | > 70 | > 70 | > 70 | > 70
COc1ccnc(C(=O)N[C@H]2CCO[C@H](Cc3ccccc3)[C@@H](Cc3ccccc3)[C@H](C)OC2=O)c1OCOC(C)=O [Compound 19] | > 70 | > 70 | > 70 | > 70
COCC[C@H]1OCC[C@H](NC(=O)c2nccc(OC)c2OCOC(C)=O)C(=O)O[C@@H](C)[C@@H]1Cc1ccccc1 [Compound 20] | > 70 | > 70 | > 70 | > 70
COc1ccnc(C(=O)N[C@H]2CCOC[C@@H](Cc3ccc(F)cc3)[C@H](C)OC2=O)c1OCOC(C)=O [Compound 21] | > 70 | > 70 | > 70 | < 70
CC[C@H]1OCC[C@H](NC(=O)c2nccc(OC)c2OCOC(C)=O)C(=O)O[C@@H](C)[C@@H]1Cc1ccc(F)cc1 [Compound 22] | > 70 | > 70 | > 70 | > 70
CCCC[C@H]1OCC[C@H](NC(=O)c2nccc(OC)c2OCOC(C)=O)C(=O)O[C@@H](C)[C@@H]1Cc1ccc(F)cc1 [Compound 23] | > 70 | > 70 | > 70 | > 70
COc1ccnc(C(=O)N[C@H]2CCO[C@H](CCc3ccccc3)[C@@H](Cc3ccc(F)cc3)[C@H](C)OC2=O)c1OCOC(C)=O [Compound 24, ((2-(((2R,3S,4S,7S)-3-(4-fluorobenzyl)-4-methyl-6-oxo-2-phenethyl-1,5-dioxonan-7-yl)carbamoyl)-4-methoxypyridin-3-yl)oxy)methyl acetate] | > 70 | > 70 | > 70 | > 70
COCC[C@H]1OCC[C@H](NC(=O)c2nccc(OC)c2OCOC(C)=O)C(=O)O[C@@H](C)[C@@H]1Cc1ccc(F)cc1 [Compound 25] | > 70 | > 70 | < 70 | < 70
COc1ccnc(C(=O)N[C@H]2CCOC[C@@H](Cc3ccccc3-c3ccccc3)[C@H](C)OC2=O)c1OCOC(C)=O [Compound 28] | > 70 | > 70 | > 70 | > 70
COc1ccnc(C(=O)N[C@H]2CCOC[C@@H](CCC(C)C)[C@H](C)OC2=O)c1OCOC(C)=O [Compound 30] | > 70 | > 70 | > 70 | > 70
CCCC[C@H]1[C@H](C)OC(=O)[C@@H](NC(=O)c2nccc(OC)c2OCOC(C)=O)CCO[C@@H]1CCc1ccccc1 [Compound 31] | > 70 | > 70 | > 70 | > 70
